Data from PMC12655529, “Serendipitous Hinge Modulation Hypothetically Reprograms Caerin 1.1-LC Antibacterial Mechanism and Gram-Negative Selectivity” (Pharmaceutics, 2025).
In brackets after ≈: the same amount, converted by molar mass. Like-named read-outs stand apart in the source and are kept apart here. Square brackets hold non-standard residues; d marks the D form. Ends that are not written are not given here. Peptide text beside a SMILES is read from it.

Columns and labels:
[1] = tested on: TNF-α secretion of LPS-stimulated RAW 264.7 cells; assay: LPS neutralisation assay (TNF-α ELISA); format: cell-based, murine; details: RAW 264.7, 100 ng/mL LPS, 24 h, peptide and hydrocortisone at the same concentration (hydrocortisone 10 μg/mL), LPS alone approximately 100 ng/mL
Method: Murine macrophage RAW 264.7 cells were cultured in 6-well plates at a density of 5 × 10^5 cells per well and allowed to adhere for 24 h at 37 °C in a 5% CO2 humidified incubator. Cells were then stimulated with 100 ng/mL LPS in the presence or absence of test peptides at varying concentrations (typically 1–100 μM). Hydrocortisone (10 μg/mL) served as the positive control for anti-inflammatory activity. After 24 h of incubation, cell culture supernatants were collected and centrifuged at 300× g for 10 min to remove cellular debris. Tumour necrosis factor-alpha (TNF-α) secretion was quantified using a mouse TNF-α ELISA Development Kit (ThermoFisher Scientific, Waltham, MA, USA) according to the manufacturer’s protocol.

Gram-positive bacteria = assay: Geometric mean MIC and therapeutic index, Gram-positive; format: cell-based; details: geometric mean of MICs
MRSA NCTC 12493 = format: cell-based, Staphylococcus aureus
[2] = tested on: Pseudomonas aeruginosa ATCC 9027; format: cell-based
Method: (§2) The antimicrobial activities of the peptides were evaluated by determining their minimal inhibitory concentration (MIC) and minimal bactericidal concentration (MBC) values following reported protocols [20]. The tested microorganisms included seven Gram-negative bacterial strains (Escherichia coli ATCC 8739, E. coli ATCC-BAA 2340, E. coli NCTC 13846, Klebsiella pneumoniae ATCC 43816, K. pneumoniae ATCC BAA-2342, Pseudomonas aeruginosa ATCC 9027, Acinetobacter baumannii ATCC BAA-747), three Gram-positive bacterial strains (Staphylococcus aureus ATCC 6538, Enterococcus faecalis NCTC 12697, MRSA NCTC 12493, and the fungal strain Candida albicans ATCC 10231. For the assay, each bacterial strain was cultured overnight at 37 °C in 100 mL of medium in a flask. The cultures were then subcultured to reach the logarithmic growth phase and diluted to 5 × 10^5 CFU/mL. Peptide samples were serially diluted two-fold in microplates, with concentrations ranging from 128 μM to 1 μM. The diluted bacterial suspensions were mixed with the peptide solutions and incubated overnight at 37 °C. The MIC values were determined by measuring the absorbance of each well using a Synergy HT plate reader (Agilent, Cheshire, UK). For MBC determination, aliquots from wells showing no visible growth were inoculated onto agar plates to assess bacterial viability. Each experiment was repeated independently three times and conducted in three independent replicates.

[3] = tested on: Klebsiella pneumoniae ATCC 43816; format: cell-based
Method: as §2

[4] = tested on: Acinetobacter baumannii ATCC BAA-747; format: cell-based
[5] = tested on: HMEC-1 human microvascular endothelial cells; format: cell-based; details: 24 h
Method: (§1) The peptide’s cytotoxicity against normal cell lines was detected by the MTT assay. Following resuscitation from cryopreservation (−80 °C), the cell line underwent multiple passages to ensure viability and adaptation. Cells were then seeded into 96-well plates and maintained at 37 °C in a 5% CO2 humidified atmosphere for 24 h to achieve proper adherence. After incubation, cells were serum-starved for 4 h using foetal bovine serum (FBS)-free medium (ThermoFisher, Waltham, MA, USA) to synchronise cell cycle progression. Peptide solutions were prepared at concentrations ranging from 128 μM to 1 μM (serial two-fold dilutions) and applied to the cells. Following peptide treatment, 10 μL of MTT (3-(4,5-dimethylthiazol-2-yl)-2,5-diphenyltetrazolium bromide) solution (5 mg/mL in PBS) was added to each well and incubated for 2 h at 37 °C. The medium was then carefully aspirated, and 100 μL of DMSO was added to dissolve the formazan crystals. Absorbance was measured at 570 nm using a microplate reader (Agilent, Cheshire, UK), with a reference wavelength of 630 nm to account for background interference. Experiments were conducted in triplicate and repeated three independent times.

[6] = tested on: MRC-5 human embryonic lung fibroblasts; format: cell-based; details: 24 h
Method: as §1

[7] = tested on: RAW 264.7 murine macrophages; format: cell-based; details: 24 h
Method: as §1

[8] = tested on: HaCaT human keratinocytes; format: cell-based; details: 24 h
Method: as §1

[9] = tested on: HEK 293 human embryonic kidney cells; format: cell-based
Method: as §1

[10] = tested on: Staphylococcus aureus ATCC 6538; format: cell-based
[11] = tested on: Galleria mellonella larvae; assay: In vivo toxicity in larvae; details: uninfected G. mellonella larvae, injection at 1×, 2×, 4× MIC, n = 10 per group, observed five days
E. coli ATCC BAA-2340 = format: cell-based, Escherichia coli
[12] = tested on: K. pneumoniae ATCC BAA-2342; format: cell-based, Klebsiella pneumoniae
Method: as §2

horse red blood cells = assay: Haemolysis assay; format: cell-based; details: concentration inducing 10% haemolysis of horse erythrocytes; 4% (v/v) in PBS, 2 h, 37 °C, absorbance 570 nm; no haemolysis at maximum testing concentration (128 μM) recorded as 256 μM
Method: The peptide cytotoxicity against mammalian erythrocytes was evaluated by haemolysis assay on horse red blood cells (E&O Laboratories Ltd., Falkirk, UK). Fresh horse blood was washed three times with PBS and resuspended to a final concentration of 4% (v/v) in PBS. The diluted blood suspension was then mixed with peptide solutions at varying concentrations and incubated for 2 h at 37 °C. Red blood cell suspensions treated with 0.1% Triton X-100 and PBS were used as controls. The Triton X-100-treated suspension was the positive control (for 100% haemolysis), while the PBS-treated suspension was the blank control. Following incubation, the mixtures were centrifuged at 1000× g for 10 min to separate erythrocytes from the supernatant. The absorbance of the supernatants was detected at 570 nm. The percentage haemolysis was calculated by following the equationPercentage Haemolysis = (AbsSample − AbsBlank)/(AbsPositive − AbsBlank) × 100%

E. coli (ATCC-BAA 2340) = format: cell-based, Escherichia coli
Method: The peptide sensitivity was determined in different salt- and serum-containing environments. Bacterial strains were prepared following the MIC detection protocol described previously. To evaluate peptide sensitivity under physiological conditions, various concentrations of salt ions (150 mM NaCl, 4.5 mM KCl, 2 mM CaCl2, 1 mM MgCl2, 8 µM ZnCl2, 6 µM NH4Cl, or 4 µM FeCl3) and serum (10% FBS) were prepared in McCartney bottles prior to the addition of bacterial suspensions. The subcultured bacterial suspensions were then introduced to these modified media conditions. For MIC determination, the treated bacterial suspensions were diluted and dispensed into 96-well plates containing peptide solutions at graded concentrations. This assay allowed for the detection of potential alterations in MIC values, serving as an indicator of peptide sensitivity under different physiological conditions. All experiments were independently repeated three times, each with three replicates.

E. coli NCTC 13846 = format: cell-based, Escherichia coli
Method: as §2

[13] = tested on: Enterococcus faecalis NCTC 12697; format: cell-based
Method: as §2

[14] = tested on: Escherichia coli ATCC 8739; format: cell-based
Gram-negative bacteria = assay: Geometric mean MIC and therapeutic index, Gram-negative; format: cell-based; details: geometric mean of MICs
[15] = first value of MIC/MBC cell, 5 × 10^5 CFU/mL, overnight 37 °C, absorbance
[16] = second value of MIC/MBC cell, agar plating

Compound	GM MIC Gram-Positive (Gram-positive bacteria)	MBC, MRSA (NCTC 12493) (MRSA NCTC 12493)	MIC, MRSA (NCTC 12493) (MRSA NCTC 12493)	MBC, P. aeruginosa (ATCC 9027) [2]	MIC, P. aeruginosa (ATCC 9027) [2]	MBC, E. coli (ATCC BAA-2340) (E. coli ATCC BAA-2340)	MIC, E. coli (ATCC BAA-2340) (E. coli ATCC BAA-2340)	MBC, K. pneumoniae (ATCC BAA-2342) [12]	MIC, K. pneumoniae (ATCC BAA-2342) [12]	HC10 (horse red blood cells)	MIC, FBS (E. coli (ATCC-BAA 2340); ATCC-BAA 2340)	MIC, Fe^3+ (E. coli (ATCC-BAA 2340); ATCC-BAA 2340)	MIC, K^+ (E. coli (ATCC-BAA 2340); ATCC-BAA 2340)	MIC, Mg^2+ (E. coli (ATCC-BAA 2340); ATCC-BAA 2340)	MIC, NH4^+ (E. coli (ATCC-BAA 2340); ATCC-BAA 2340)	MIC, Na^+ (E. coli (ATCC-BAA 2340); ATCC-BAA 2340)	MBC, E. coli (NCTC 13846) (E. coli NCTC 13846)	MIC, E. coli (NCTC 13846) (E. coli NCTC 13846)	MBC, E. coli (ATCC 8739) ([14]; ATCC 8739)	other results
C[C@]12CCC(=O)C=C1CC[C@@H]1[C@@H]2[C@@H](O)C[C@@]2(C)[C@H]1CC[C@]2(O)C(=O)CO [hydrocortisone]	–	–	–	–	–	–	–	–	–	–	–	–	–	–	–	–	–	–	–	TNF-α level after LPS stimulation [1]: approximately 22.3 ng/mL
GLLSVLGSLKLIVPHVVPLIAEKL-NH2 [Caerin 1.1-LC]	14.25 µM	128 µM	32 µM	128 µM	64 µM	16 µM	8 µM	64 µM	16 µM	37.5 µM	32 µM	16 µM	16 µM	32 µM	16 µM	16 µM	32 µM	4 µM	64 µM	MBC, K. pneumoniae (ATCC 43816) ([3]; ATCC 43816): 64 µM; MIC, K. pneumoniae (ATCC 43816) ([3]; ATCC 43816): 16 µM; MBC, A. baumannii (ATCC BAA-747) ([4]; ATCC BAA-747): 128 µM; MIC, A. baumannii (ATCC BAA-747) ([4]; ATCC BAA-747): 16 µM; IC50 [5]: 79.3 µM; IC50 [6]: 14.8 µM; IC50 [7]: 6 µM; IC50 [8]: 61.2 µM; IC50 ([9]; 24 h): 10.8 µM; MBC, S. aureus (ATCC 6538) ([10]; ATCC 6538): 128 µM; MIC, S. aureus (ATCC 6538) ([10]; ATCC 6538): 64 µM; toxicity to larvae (mortality) [11]: complete mortality by day four or five post-injection; MIC, Ca^2+ (E. coli (ATCC-BAA 2340); ATCC-BAA 2340): 64 µM; MBC, E. faecalis (NCTC 12697) ([13]; NCTC 12697): >128 µM; MIC, E. faecalis (NCTC 12697) ([13]; NCTC 12697): >128 µM; MIC, E. coli (ATCC 8739) ([14]; ATCC 8739): 16 µM
CC[C@H](C)[C@H](NC(=O)[C@H](CCCCN)NC(=O)[C@@H]1CCCN1C(=O)[C@H](NC(=O)[C@H](NC(=O)[C@H](Cc1c[nH]cn1)NC(=O)[C@@H]1CCCN1C(=O)[C@@H](NC(=O)[C@@H](NC(=O)[C@H](CCCCN)NC(=O)[C@H](CCCCN)NC(=O)[C@H](CC(C)C)NC(=O)[C@H](CO)NC(=O)[C@H](CCCCN)NC(=O)[C@H](CC(C)C)NC(=O)[C@@H](NC(=O)[C@H](CO)NC(=O)[C@H](CC(C)C)NC(=O)[C@H](CC(C)C)NC(=O)CN)C(C)C)[C@@H](C)CC)C(C)C)C(C)C)C(C)C)C(=O)N[C@@H](C)C(=O)N[C@@H](CCC(=O)O)C(=O)N[C@@H](CCCCN)C(=O)N[C@@H](CC(C)C)C(N)=O [Caerin 1.1-LC 7.11.19K.V(D)V(D)] (H-GLLSVLKSLKKIVPH[dV][dV]PKIAEKL-NH2)	128 µM	64 µM (≈ 167 µg/mL)	64 µM (≈ 167 µg/mL)	4/4 µM	4/4 µM	4 µM (≈ 10.4 µg/mL)	4 µM (≈ 10.4 µg/mL)	32 µM (≈ 83.5 µg/mL)	16 µM (≈ 41.7 µg/mL)	256 µM	16 µM (≈ 41.7 µg/mL)	4 µM (≈ 10.4 µg/mL)	4 µM (≈ 10.4 µg/mL)	32 µM (≈ 83.5 µg/mL)	4 µM (≈ 10.4 µg/mL)	16 µM (≈ 41.7 µg/mL)	8 µM (≈ 20.9 µg/mL)	8 µM (≈ 20.9 µg/mL)	4 µM (≈ 10.4 µg/mL)	MIC, K. pneumoniae (ATCC 43816) [3, 15]: 64 µM (≈ 167 µg/mL); MBC, K. pneumoniae (ATCC 43816) [3, 16]: 128 µM (≈ 334 µg/mL); MIC, A. baumannii (ATCC BAA-747) [4, 15]: 32 µM (≈ 83.5 µg/mL); MBC, A. baumannii (ATCC BAA-747) [4, 16]: 128 µM (≈ 334 µg/mL); GM MIC Gram-Negative (Gram-negative bacteria): 9.75 µM; IC50 ([9]; MTT, peptide 128 to 1 μM, absorbance 570 nm, triplicate, three independent repeats, NI = no inhibition activity, read-out: IC50, HEK 293): 130 µM; MIC, S. aureus (ATCC 6538) [10, 15]: 128 µM (≈ 334 µg/mL); MBC, S. aureus (ATCC 6538) [10, 16]: 128 µM (≈ 334 µg/mL); MIC, Control (E. coli (ATCC-BAA 2340); ATCC-BAA 2340): 4 µM (≈ 10.4 µg/mL); MIC, Ca^2+ (E. coli (ATCC-BAA 2340); E. coli (ATCC-BAA 2340), medium with 2 mM CaCl2): 128 µM (≈ 334 µg/mL); MIC, E. faecalis (NCTC 12697) [13, 15]: >128 µM; MBC, E. faecalis (NCTC 12697) [13, 16]: >128 µM; MIC, E. coli (ATCC 8739) ([14]; first value of MIC/MBC cell, 5 × 10^5 CFU/mL, peptide 128 to 1 μM two-fold, overnight 37 °C, absorbance, repeated three times): 2 µM (≈ 5.22 µg/mL)
